The values that follow come from US7932262B2 (Novartis AG, priority 2006, dated 2011).

Bounds are passed on as bounds.

In this assay the test system is PC-3 cells. Kind of assay: Cell Proliferation Assay (Cell Titer Glo), PC-3 cell line. The class given is cell-based. Particulars: Homo sapiens, PC-3, PC3 cells; read-out: CPEC50 PC3. The procedure: IV. Cell Proliferation Assay Protocol:
A2780, PC-3, or PC3MM cells were seeded at 1000 cells/well in 100 μL/well (10.000 cells/mL) growth media in 96-well plates. Cells were allowed to adhere to the bottom of plates for 3-5 hours in a 37° C. 5% CO2 incubator. Compounds were dissolved in DMSO and then transferred to the cell plates. The cells were incubated with the compounds for 3 days in a 37° C. 5% CO2 incubator. The growth medium containing the compounds was then removed from the cells and fresh medium was added, followed by 100 μL of Cell Titer Glo assay reagent (Promega). This mixture was shaken for 1 minute and then incubated without shaking for 10 minutes. Activity determinations for the compounds were made by detection on a Trilux Instrument.
V. Cell Proliferation Assay Protocol: PC-3 Cell Line
PC-3 cells were seeded at 1000 cells/well in 100 μL/well (10.000 cells/mL) along with growth media into black-walled, clear bottom 96-well plates. The cells were allowed to adhere to the bottom of the plate for 3-5 hours in a 37° C. 5% CO2 incubator.
Test compounds were diluted to 500× in DMSO. The DMSO solutions of six of the compounds were transferred to the cells in the 96 well round bottom plate, column 2, row B-F. A 1:3 serial dilution of each compound was carried out. The serial dilution comprised adding 20 μL of DMSO to the wells containing the compounds and doing a 1:3 dilution across the plate from columns 2-10. Column 11 contained only DMSO. The serial dilution was carried out using a BioMek 2000 protocol “CP Serial Dilution using 250 μL tips” or “Proliferation Compound” (if using 20 μL tips).
To a 96 deep well block, columns 2-11 rows B-F, was transferred 500 μL of growth medium. Using the FX protocol “HH_CellAssay—2 μL to 500 μL”, 2 μL of compound from each cell of the compound plate was transferred to the corresponding cell in the 96 deep well block containing 500 μL of growth medium. The instrument was programmed to dilute the compound in growth medium and then transfer 100 μL of that mixture to cell plates containing cells. The cell plates, to which test compounds had been added, were incubated for 3 days at 37° C. Following the incubation, the medium was removed and replaced with fresh medium. Cell Titer Glo (100 μL) was added to each well and the plate was shaken for 1 minute and then incubated without shaking for 10 minutes. The plates were then read using a Trilux instrument.
In general terms: In ATP-based viability assays light output follows the ATP content of the culture.
With `Nc1cc(C(F)(F)F)c(-c2ccc3cnc(Nc4ccc(S(N)(=O)=O)cc4)nc3c2OC2CCNCC2)cn1` [Compound 934, 4-(7-(6-amino-4-(trifluoromethyl)pyridin-3-yl)-8-(piperidin-4-yloxy)quinazolin-2-ylamino)benzenesulfonamide], the EC50 was less than 5 µM.
The figure for `COc1cc(Nc2ncc3ccc(OC4CCNCC4)cc3n2)cc(OC)c1` [Compound 957, N-(3,5-dimethoxyphenyl)-7-(piperidin-4-yloxy)quinazolin-2-amine] is less than 5 µM.
Take `CCN1CCC(Oc2ccc3cnc(Nc4cc(OC)cc(OC)c4)nc3c2)CC1` [Compound 958, N-(3,5-dimethoxyphenyl)-7-(1-ethylpiperidin-4-yloxy)quinazolin-2-amine]: the EC50 is less than 5 µM.
For the molecule `CC(C)N1CCC(Oc2ccc3cnc(Nc4ccc(Cl)cc4)nc3c2)CC1` [Compound 959, N-(4-chlorophenyl)-7-(1-isopropylpiperidin-4-yloxy)quinazolin-2-amine], the EC50 was less than 5 µM.
Regarding `CC(C)NS(=O)(=O)c1ccc(Nc2ncc3ccc(OC4CCN(C(C)C)CC4)cc3n2)cc1` [Compound 961, N-isopropyl-4-(7-(1-isopropylpiperidin-4-yloxy)quinazolin-2-ylamino)benzenesulfonamide], the EC50 is less than 5 µM.
The same measure for `CNC(=O)Cc1ccc(Nc2ncc3cccc(OC4CCN(C(C)C)CC4)c3n2)cc1` [Compound 966, 2-(4-(8-(1-isopropylpiperidin-4-yloxy)quinazolin-2-ylamino)phenyl)-N-methylacetamide]: less than 5 µM.
Regarding `CC(C)NC(=O)Cc1ccc(Nc2ncc3cccc(OC4CCN(C(C)C)CC4)c3n2)cc1` [Compound 967, N-isopropyl-2-(4-(8-(1-isopropylpiperidin-4-yloxy)quinazolin-2-ylamino)phenyl)acetamide], the EC50 is less than 5 µM.
The same measure for `CC(C)N1CCC(Oc2cccc3cnc(Nc4ccc(N5CCOCC5)cc4)nc23)CC1` [Compound 968, 8-(1-isopropylpiperidin-4-yloxy)-N-(4-morpholinophenyl)quinazolin-2-amine]: less than 5 µM; for `CC(=O)Nc1ccc(Nc2ncc3cccc(OC4CCN(C(C)C)CC4)c3n2)cc1` [Compound 969]: less than 5 µM.
Turning to `CC(C)N1CCC(Oc2cccc3cnc(Nc4ccc(CC(N)=O)cc4)nc23)CC1` [Compound 970, 2-(4-(8-(1-isopropylpiperidin-4-yloxy)quinazolin-2-ylamino)phenyl)acetamide], the EC50 is less than 5 µM.
The figure for `Fc1ccc(Nc2ncc3ccc(OC4CCNCC4)cc3n2)cc1` [Compound 988, N-(4-fluorophenyl)-7-(piperidin-4-yloxy)quinazolin-2-amine] is less than 5 µM; for `CC(C)N1CCC(Oc2ccc3cnc(Nc4ccc(F)cc4)nc3c2)CC1` [Compound 989, N-(4-fluorophenyl)-7-(1-isopropylpiperidin-4-yloxy)quinazolin-2-amine] it is 5 to 10 µM; for `CNS(=O)(=O)Cc1ccc(Nc2ncc3ccc(OC4CCN(C(C)C)CC4)cc3n2)cc1` [Compound 990, 1-(4-(7-(1-isopropylpiperidin-4-yloxy)quinazolin-2-ylamino)phenyl)-N-methylmethanesulfonamide] it is less than 5 µM.
For `CC(C)N1CCC(Oc2cccc3cnc(Nc4ccc(NC(=O)N5CCCC5)cc4)nc23)CC1` [Compound 992, N-(4-(8-(1-isopropylpiperidin-4-yloxy)quinazolin-2-ylamino)phenyl)pyrrolidine-1-carboxamide], the EC50 is less than 5 µM.
The same measure for `CC(C)N1CCC(Oc2cccc3cnc(Nc4cccc(CC(N)=O)c4)nc23)CC1` [Compound 1002, 2-(3-(8-(1-isopropylpiperidin-4-yloxy)quinazolin-2-ylamino)phenyl)acetamide]: 5 to 10 µM; for `CNC(=O)Cc1cccc(Nc2ncc3cccc(OC4CCN(C(C)C)CC4)c3n2)c1` [Compound 1003, 2-(3-(8-(1-isopropylpiperidin-4-yloxy)quinazolin-2-ylamino)phenyl)-N-methylacetamide]: less than 5 µM; for `CNC(=O)Cc1cccc(NC(=O)Cc2cccc(Nc3ncc4cccc(OC5CCN(C(C)C)CC5)c4n3)c2)c1` [Compound 1004, 2-(3-(8-(1-isopropylpiperidin-4-yloxy)quinazolin-2-ylamino)phenyl)-N-(3-(2-(methylamino)-2-oxoethyl)phenyl)acetamide]: less than 5 µM.
Turning to `CC(C)NC(=O)Cc1cccc(Nc2ncc3cccc(OC4CCN(C(C)C)CC4)c3n2)c1` [Compound 1005, N-isopropyl-2-(3-(8-(1-isopropylpiperidin-4-yloxy)quinazolin-2-ylamino)phenyl)acetamide], the EC50 is less than 5 µM.
The figure for `CC(C)N1CCC(Oc2cccc3cnc(Nc4cccc(N5CCOCC5)c4)nc23)CC1` [Compound 1006, 8-(1-isopropylpiperidin-4-yloxy)-N-(3-morpholinophenyl)quinazolin-2-amine] is 5 to 10 µM; for `CC(=O)Nc1cccc(Nc2ncc3cccc(OC4CCN(C(C)C)CC4)c3n2)c1` [Compound 1007, N-(3-(8-(1-isopropylpiperidin-4-yloxy)quinazolin-2-ylamino)phenyl)acetamide] it is less than 5 µM.
For `CNS(=O)(=O)Cc1ccc(Nc2ncc3cccc(OC4CCN(C(C)C)CC4)c3n2)cc1` [Compound 1008, 1-(4-(8-(1-isopropylpiperidin-4-yloxy)quinazolin-2-ylamino)phenyl)-N-methylmethanesulfonamide], the EC50 was less than 5 µM.
On to `CC(C)N1CCC(Oc2cccc3cnc(Nc4ccc(F)cc4)nc23)CC1` [Compound 1009, N-(4-fluorophenyl)-8-(1-isopropylpiperidin-4-yloxy)quinazolin-2-amine], for which the EC50 was in the range of 5 to 10 µM.
Regarding `CC(C)N1CCC(Oc2cccc3cnc(Nc4ccc(Cl)cc4)nc23)CC1` [Compound 1010, N-(4-chlorophenyl)-8-(1-isopropylpiperidin-4-yloxy)quinazolin-2-amine], the EC50 is less than 5 µM.
For `CC(C)N1CCC(Oc2cccc3cnc(Nc4ccc(C(F)(F)F)cc4)nc23)CC1` [Compound 1011, 8-(1-isopropylpiperidin-4-yloxy)-N-(4-(trifluoromethyl)phenyl)quinazolin-2-amine], the EC50 was less than 5 µM.
Consider `CC(C)N1CCC(Oc2ccc3cnc(Nc4ccc(N)c(Cl)c4)nc3c2)CC1` [Compound 1013, 3-chloro-N1-(7-(1-isopropylpiperidin-4-yloxy)quinazolin-2-yl)benzene-1,4-diamine], for which the EC50 fell in the range of 5 to 10 µM.
For `CC(=O)Nc1ccc(Nc2ncc3ccc(OC4CCNCC4)cc3n2)cc1C` [Compound 1014, N-(2-methyl-4-(7-(piperidin-4-yloxy)quinazolin-2-ylamino)phenyl)acetamide], the EC50 was less than 5 µM.
Regarding `C#Cc1cc(OC2CCN(C(C)C)CC2)c2nc(Nc3ccc(S(N)(=O)=O)cc3)ncc2c1` [Compound 1015, 4-(6-ethynyl-8-(1-isopropylpiperidin-4-yloxy)quinazolin-2-ylamino)benzenesulfonamide], the EC50 was less than 5 µM.
